Measured values published in patent publication US20160367556A1, “Therapeutic Agent for Ocular Disease or Prophylactic Agent for Ocular Disease” (Japan Tobacco Inc., priority 2013, published 2016).

Tested on: VEGF-induced retinal vascular permeability
Test: Retinal vascular permeability suppression by oral administration in rat model where VEGF-induced retinal vascular permeability was increased
Assay type: in vivo
Conditions: oral 10, 30 or 100 mg/kg; vitreous protein 24 hours after intravitreal rat VEGF164 400 ng/eye; FIG. 1
Method: Experiment 1. Retinal vascular permeability suppression by oral administration of Compound A in rat model where VEGF-induced retinal vascular permeability was increased A rat model where VEGF-induced retinal vascular permeability was increased was used to evaluate the ability of suppressing an increase of the retinal vascular permeability by Compound A. The animal model was prepared with appropriate modifications based on Non-Patent Literature 3, etc. As experimental animals, male Brown Norway rats aged 8 weeks {CHARLES RIVER LABORATORIES JAPAN, INC.} were used. Inside the vitreous body of each eye of rats, rat VEGF164 {400 ng/eye, R&D Systems, Inc.} was injected <VEGF-administered group>. Inside the vitreous body of each eye of rats in a normal control group, D-PBS (-) {Sigma-Aldrich Corporation} was intravitreally injected. Each group included four rats <eight eyeballs>. […] The protein concentration in the sampled vitreous body was determined by the Bradford method. The rate of suppressing an increase of the retinal vascular permeability was calculated according to the following equation X. Rate of suppressing increase of retinal vascular permeability (%)=(PB-PX)/(PB-PA)×100 [Equation X] […]

Compound: C[C@H]1CN(C(=O)CC#N)[C@]12CCN(c1ncnc3[nH]ccc13)C2 [Compound A, 3-[(3S,4R)-3-Methyl-6-(7H-pyrrolo[2,3-d]pyrimidin-4-yl)-1,6-diazaspiro[3.4]octan-1-yl]-3-oxopropanenitrile]
- suppression of retinal vascular permeability: suppression of retinal vascular permeability
